Laboratory results reported in ChEMBL document CHEMBL1138430, “Novel tetrahydroisoquinolines are histamine H3 antagonists and serotonin reuptake inhibitors” (Bioorg Med Chem Lett, 2007).
Calls of active or inactive are those of the source. The calls are words filed in the database; no cut-off is given here.

Key:
[1] = target: Beta-1 adrenergic receptor (Homo sapiens) (UniProt P08588); test: Binding affinity at adrenergic beta-1 receptor at 1 uM
Homo sapiens [2] = species: Homo sapiens; test: Binding affinity at adrenergic alpha-2 receptor at 1 uM
[3] = target: T1, Type-1 angiotensin II receptor (Homo sapiens) (UniProt P30556); test: Binding affinity at AT1 receptor at 1 uM
T1 sequence (whole entry): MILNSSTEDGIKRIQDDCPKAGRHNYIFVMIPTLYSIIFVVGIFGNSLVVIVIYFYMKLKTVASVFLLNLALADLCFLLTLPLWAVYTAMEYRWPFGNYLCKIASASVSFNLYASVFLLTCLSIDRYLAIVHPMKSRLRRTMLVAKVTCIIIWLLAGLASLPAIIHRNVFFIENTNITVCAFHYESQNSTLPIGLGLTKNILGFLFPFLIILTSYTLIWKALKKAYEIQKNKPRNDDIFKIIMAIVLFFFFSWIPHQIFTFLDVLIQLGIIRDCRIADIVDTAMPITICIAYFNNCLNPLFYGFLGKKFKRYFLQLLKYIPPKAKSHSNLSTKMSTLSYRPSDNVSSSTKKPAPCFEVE

[4] = target: D(1A) dopamine receptor (Homo sapiens) (UniProt P21728); test: Binding affinity at dopamine D1 receptor at 1 uM
Chain of D(1A) dopamine receptor (Homo sapiens) (P21728 whole entry): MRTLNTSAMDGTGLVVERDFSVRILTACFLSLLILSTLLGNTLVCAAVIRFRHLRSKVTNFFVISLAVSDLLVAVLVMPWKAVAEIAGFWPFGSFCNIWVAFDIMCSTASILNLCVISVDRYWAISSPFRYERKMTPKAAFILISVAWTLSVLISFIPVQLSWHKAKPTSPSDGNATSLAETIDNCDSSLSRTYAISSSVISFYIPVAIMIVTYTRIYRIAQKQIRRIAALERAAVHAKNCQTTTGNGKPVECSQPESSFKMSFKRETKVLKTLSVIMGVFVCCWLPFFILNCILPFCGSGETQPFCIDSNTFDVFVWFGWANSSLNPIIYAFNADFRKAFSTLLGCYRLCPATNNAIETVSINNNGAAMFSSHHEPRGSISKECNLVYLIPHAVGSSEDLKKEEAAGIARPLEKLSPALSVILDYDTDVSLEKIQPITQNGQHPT

Homo sapiens [5] = species: Homo sapiens; test: Binding affinity at ML1 receptor at 1 uM
[6] = target: T2, Muscarinic acetylcholine receptor M2 (Homo sapiens) (UniProt P08172); test: Binding affinity at muscarinic M2 receptor at 1 uM
T2 sequence (whole entry): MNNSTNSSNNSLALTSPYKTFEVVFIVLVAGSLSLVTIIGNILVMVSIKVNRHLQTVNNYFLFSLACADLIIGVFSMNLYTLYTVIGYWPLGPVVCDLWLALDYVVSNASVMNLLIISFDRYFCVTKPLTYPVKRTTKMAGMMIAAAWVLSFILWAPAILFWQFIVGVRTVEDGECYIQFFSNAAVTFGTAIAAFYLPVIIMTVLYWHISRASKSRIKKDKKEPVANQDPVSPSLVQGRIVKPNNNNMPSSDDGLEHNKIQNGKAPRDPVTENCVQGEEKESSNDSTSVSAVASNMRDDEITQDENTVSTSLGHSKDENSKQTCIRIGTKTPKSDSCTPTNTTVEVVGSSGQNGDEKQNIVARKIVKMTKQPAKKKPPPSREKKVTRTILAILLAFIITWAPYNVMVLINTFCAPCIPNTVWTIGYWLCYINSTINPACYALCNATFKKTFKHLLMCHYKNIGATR

[7] = target: Neurotensin receptor type 1 (Homo sapiens) (UniProt P30989); test: Binding affinity at NT1 receptor at 1 uM
Chain of Neurotensin receptor type 1 (Homo sapiens) (P30989 whole entry): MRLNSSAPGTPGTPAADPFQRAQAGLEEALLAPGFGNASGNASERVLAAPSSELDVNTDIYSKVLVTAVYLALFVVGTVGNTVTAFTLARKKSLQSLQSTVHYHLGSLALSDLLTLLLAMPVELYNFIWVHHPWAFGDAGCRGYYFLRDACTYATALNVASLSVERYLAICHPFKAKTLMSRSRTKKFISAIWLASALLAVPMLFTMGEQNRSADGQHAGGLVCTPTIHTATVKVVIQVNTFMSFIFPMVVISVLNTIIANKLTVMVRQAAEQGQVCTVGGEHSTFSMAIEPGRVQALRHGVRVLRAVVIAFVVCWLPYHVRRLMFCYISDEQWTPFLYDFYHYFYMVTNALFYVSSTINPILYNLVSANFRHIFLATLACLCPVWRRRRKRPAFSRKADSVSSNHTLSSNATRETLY

[8] = target: T3, Substance-K receptor (Homo sapiens) (UniProt P21452); test: Binding affinity at NK2 receptor at 1 uM
T3 sequence (whole entry): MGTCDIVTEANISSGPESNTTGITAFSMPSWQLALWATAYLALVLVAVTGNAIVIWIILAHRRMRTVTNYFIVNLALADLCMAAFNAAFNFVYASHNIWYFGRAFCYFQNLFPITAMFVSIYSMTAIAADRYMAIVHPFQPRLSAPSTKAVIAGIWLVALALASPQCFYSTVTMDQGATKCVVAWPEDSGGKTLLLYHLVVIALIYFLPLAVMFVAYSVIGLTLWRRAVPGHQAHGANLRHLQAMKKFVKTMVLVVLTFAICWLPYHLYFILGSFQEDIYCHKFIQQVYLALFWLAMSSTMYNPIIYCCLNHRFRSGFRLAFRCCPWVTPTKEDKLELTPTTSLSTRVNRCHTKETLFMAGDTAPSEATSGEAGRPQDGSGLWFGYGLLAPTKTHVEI

[9] = target: Mu-type opioid receptor (Homo sapiens) (UniProt P35372); test: Binding affinity at MOP receptor at 1 uM
Chain of Mu-type opioid receptor (Homo sapiens) (P35372 whole entry): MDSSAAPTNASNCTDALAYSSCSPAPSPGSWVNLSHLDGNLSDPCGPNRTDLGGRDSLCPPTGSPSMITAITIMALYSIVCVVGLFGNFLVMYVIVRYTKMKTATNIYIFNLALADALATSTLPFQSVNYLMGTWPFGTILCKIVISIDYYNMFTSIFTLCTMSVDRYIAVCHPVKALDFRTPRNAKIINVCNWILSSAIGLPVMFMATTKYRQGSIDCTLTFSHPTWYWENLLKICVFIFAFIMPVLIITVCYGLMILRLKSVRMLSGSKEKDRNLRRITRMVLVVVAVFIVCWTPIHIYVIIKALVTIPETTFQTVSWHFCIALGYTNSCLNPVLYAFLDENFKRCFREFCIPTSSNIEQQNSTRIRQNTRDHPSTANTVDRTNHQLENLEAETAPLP

[10] = target: Kappa-type opioid receptor (Homo sapiens) (UniProt P41145); test: Binding affinity at KOP receptor at 1 uM
Chain of Kappa-type opioid receptor (Homo sapiens) (P41145 whole entry): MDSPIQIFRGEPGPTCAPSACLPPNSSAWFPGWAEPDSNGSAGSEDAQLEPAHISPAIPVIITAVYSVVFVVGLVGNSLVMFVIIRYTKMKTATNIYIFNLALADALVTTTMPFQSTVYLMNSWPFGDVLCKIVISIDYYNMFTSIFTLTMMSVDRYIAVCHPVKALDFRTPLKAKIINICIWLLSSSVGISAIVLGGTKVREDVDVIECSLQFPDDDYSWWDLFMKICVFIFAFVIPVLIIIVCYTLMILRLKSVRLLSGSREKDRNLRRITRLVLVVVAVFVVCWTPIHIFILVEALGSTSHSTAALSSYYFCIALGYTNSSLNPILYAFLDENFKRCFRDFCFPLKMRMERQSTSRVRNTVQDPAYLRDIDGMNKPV

[11] = target: Delta-type opioid receptor (Homo sapiens) (UniProt P41143); test: Binding affinity at DOP receptor at 1 uM
Chain of Delta-type opioid receptor (Homo sapiens) (P41143 whole entry): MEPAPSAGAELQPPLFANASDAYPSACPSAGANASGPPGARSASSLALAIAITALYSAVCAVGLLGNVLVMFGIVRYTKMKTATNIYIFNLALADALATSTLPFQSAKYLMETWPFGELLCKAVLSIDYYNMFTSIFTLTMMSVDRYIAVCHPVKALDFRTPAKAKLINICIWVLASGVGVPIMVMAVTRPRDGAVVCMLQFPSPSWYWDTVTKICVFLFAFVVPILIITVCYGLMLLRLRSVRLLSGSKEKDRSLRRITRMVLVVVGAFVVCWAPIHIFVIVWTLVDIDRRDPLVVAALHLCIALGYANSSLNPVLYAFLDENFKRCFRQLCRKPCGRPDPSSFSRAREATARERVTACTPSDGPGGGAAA

[12] = target: T4, 5-hydroxytryptamine receptor 1A (Homo sapiens) (UniProt P08908); test: Binding affinity at 5HT1A receptor at 1 uM
T4 sequence (whole entry): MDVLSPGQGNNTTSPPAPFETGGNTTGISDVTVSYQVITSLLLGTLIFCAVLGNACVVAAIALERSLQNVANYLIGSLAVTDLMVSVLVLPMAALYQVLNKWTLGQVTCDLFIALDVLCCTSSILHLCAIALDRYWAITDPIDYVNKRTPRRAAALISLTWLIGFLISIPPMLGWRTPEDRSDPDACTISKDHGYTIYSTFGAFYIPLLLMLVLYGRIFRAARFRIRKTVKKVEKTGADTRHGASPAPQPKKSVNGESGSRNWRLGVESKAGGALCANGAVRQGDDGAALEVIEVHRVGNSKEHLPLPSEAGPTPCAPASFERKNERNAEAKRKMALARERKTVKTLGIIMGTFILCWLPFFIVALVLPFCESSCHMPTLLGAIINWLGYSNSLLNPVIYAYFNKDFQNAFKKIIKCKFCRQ

[13] = target: 5-hydroxytryptamine receptor 1B (Homo sapiens) (UniProt P28222); test: Binding affinity at 5HT1B receptor at 1 uM
Chain of 5-hydroxytryptamine receptor 1B (Homo sapiens) (P28222 whole entry): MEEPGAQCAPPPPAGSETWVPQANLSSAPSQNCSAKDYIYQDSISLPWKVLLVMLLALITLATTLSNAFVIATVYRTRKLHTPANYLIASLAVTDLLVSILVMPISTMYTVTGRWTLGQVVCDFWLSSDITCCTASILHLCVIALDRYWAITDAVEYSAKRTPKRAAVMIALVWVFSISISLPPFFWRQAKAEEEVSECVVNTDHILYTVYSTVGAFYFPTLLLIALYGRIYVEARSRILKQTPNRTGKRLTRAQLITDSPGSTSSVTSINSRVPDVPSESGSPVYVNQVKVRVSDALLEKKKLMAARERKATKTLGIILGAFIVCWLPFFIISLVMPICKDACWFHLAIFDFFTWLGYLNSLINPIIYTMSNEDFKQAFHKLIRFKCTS

[14] = target: 5-hydroxytryptamine receptor 2A (Homo sapiens) (UniProt P28223); test: Binding affinity at 5HT2A receptor at 1 uM
Chain of 5-hydroxytryptamine receptor 2A (Homo sapiens) (P28223 whole entry): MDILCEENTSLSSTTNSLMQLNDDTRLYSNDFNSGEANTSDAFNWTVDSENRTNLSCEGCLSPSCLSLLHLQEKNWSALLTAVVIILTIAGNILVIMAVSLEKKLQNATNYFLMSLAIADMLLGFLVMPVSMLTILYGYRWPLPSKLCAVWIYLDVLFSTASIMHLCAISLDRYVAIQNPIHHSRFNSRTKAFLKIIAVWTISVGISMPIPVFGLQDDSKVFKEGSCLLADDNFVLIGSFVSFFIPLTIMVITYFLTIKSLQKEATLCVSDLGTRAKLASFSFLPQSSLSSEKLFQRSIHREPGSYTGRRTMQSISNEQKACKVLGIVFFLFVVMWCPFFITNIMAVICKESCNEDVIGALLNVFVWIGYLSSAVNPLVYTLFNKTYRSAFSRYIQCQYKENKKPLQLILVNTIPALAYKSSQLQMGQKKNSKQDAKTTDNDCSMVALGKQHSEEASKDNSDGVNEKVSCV

[15] = target: T5, 5-hydroxytryptamine receptor 3A (Homo sapiens) (UniProt P46098); test: Binding affinity at 5HT3 receptor at 1 uM
T5 sequence (whole entry): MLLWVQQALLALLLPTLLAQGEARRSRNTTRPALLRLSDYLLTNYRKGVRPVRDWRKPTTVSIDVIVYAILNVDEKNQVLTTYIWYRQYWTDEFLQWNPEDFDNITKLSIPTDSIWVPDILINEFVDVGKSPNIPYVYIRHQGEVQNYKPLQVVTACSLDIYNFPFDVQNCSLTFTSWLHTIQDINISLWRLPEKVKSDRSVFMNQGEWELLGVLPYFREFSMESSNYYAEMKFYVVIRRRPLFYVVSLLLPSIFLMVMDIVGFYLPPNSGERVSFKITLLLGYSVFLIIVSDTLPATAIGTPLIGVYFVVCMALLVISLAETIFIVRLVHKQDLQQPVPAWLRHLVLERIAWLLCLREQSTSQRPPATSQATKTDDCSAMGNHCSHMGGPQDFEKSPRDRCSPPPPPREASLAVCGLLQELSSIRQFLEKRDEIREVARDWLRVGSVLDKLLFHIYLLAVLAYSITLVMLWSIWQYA

[16] = target: 5-hydroxytryptamine receptor 6 (Homo sapiens) (UniProt P50406); test: Binding affinity at 5HT6 receptor at 1 uM
Chain of 5-hydroxytryptamine receptor 6 (Homo sapiens) (P50406 whole entry): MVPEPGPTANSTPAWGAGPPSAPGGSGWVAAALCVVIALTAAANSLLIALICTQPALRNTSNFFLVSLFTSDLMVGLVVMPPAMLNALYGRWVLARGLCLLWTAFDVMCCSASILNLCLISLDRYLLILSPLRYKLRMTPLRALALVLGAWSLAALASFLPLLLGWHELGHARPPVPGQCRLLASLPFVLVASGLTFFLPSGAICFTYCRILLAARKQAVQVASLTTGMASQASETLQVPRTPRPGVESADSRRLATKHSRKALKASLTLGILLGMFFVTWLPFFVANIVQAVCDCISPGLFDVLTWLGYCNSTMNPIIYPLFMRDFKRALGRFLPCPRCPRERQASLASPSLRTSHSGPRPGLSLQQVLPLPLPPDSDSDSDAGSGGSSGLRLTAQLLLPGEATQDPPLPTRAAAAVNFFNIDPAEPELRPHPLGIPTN

[17] = target: Vasopressin V1a receptor (Homo sapiens) (UniProt P37288); test: Binding affinity at vasopressin V1a receptor at 1 uM
Chain of Vasopressin V1a receptor (Homo sapiens) (P37288 whole entry, looked up): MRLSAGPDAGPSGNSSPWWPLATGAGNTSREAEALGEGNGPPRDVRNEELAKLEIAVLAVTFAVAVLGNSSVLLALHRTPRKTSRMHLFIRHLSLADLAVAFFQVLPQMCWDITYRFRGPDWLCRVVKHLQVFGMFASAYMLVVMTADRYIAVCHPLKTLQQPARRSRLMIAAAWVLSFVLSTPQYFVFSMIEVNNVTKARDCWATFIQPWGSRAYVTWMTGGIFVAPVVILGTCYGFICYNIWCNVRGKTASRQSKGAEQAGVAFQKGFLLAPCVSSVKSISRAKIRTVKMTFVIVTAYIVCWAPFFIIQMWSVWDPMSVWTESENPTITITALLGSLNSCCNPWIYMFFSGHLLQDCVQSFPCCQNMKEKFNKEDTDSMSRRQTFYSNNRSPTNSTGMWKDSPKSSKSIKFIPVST

Chain of Beta-1 adrenergic receptor (Homo sapiens) (P08588 whole entry, looked up): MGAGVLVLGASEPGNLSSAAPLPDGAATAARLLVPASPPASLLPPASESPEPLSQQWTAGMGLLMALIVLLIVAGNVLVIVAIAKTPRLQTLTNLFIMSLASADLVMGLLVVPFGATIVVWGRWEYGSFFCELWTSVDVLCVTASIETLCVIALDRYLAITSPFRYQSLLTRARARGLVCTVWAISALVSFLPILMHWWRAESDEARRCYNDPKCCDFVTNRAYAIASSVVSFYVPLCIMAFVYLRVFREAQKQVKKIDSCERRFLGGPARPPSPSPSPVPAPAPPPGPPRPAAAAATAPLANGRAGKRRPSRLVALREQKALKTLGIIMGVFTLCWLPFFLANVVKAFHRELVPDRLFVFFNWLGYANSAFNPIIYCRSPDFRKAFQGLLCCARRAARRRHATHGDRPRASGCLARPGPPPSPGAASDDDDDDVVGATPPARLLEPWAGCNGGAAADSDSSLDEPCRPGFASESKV

Row | Activity [1] | Activity (Homo sapiens [2]) | Activity [3] | Activity [4] | Activity (Homo sapiens [5]) | Activity [6] | Activity [7] | Activity [8] | Activity [9] | Activity [10] | Activity [11] | Activity [12] | Activity [13] | Activity [14] | Activity [15] | Activity [16] | Activity [17] | Compound
1 | inactive | inactive | inactive | inactive | inactive | inactive | inactive | inactive | inactive | inactive | inactive | inactive | inactive | inactive | inactive | inactive | inactive | COc1ccc([C@@H]2CN(C)Cc3cc(OCCCN4CCOC[C@@H]4C)ccc32)cc1
2 | inactive | inactive | inactive | inactive | inactive | inactive | inactive | inactive | inactive | inactive | inactive | inactive | inactive | inactive | inactive | inactive | inactive | CSc1ccc(C2CN(C)Cc3cc(OCCCN4CCOCC4)ccc32)cc1 (racemic)
3 | inactive | inactive | inactive | inactive | inactive | inactive | inactive | inactive | inactive | inactive | inactive | inactive | inactive | inactive | inactive | inactive | inactive | CSc1ccc(C2CN(C)Cc3cc(OCCCN4CCC(F)CC4)ccc32)cc1 (racemic)
